Among the data in patent US9884818B2, “Sulphamoylpyrrolamide derivatives and the use thereof as medicaments for the treatment of hepatitis B” (Janssen Sciences Ireland UC, priority 2013, dated 2018) are CC50 and EC50 values, retold here.

The nature of data set [1]: Cytotoxicity in HepG2 cells, Resazurin viability assay. The conditions noted are these: human, HepG2 cells, HepG2 4 days CC50 (μM), incubated for 4 days, Resazurin assay. On the technique in general: Alamar Blue is a resazurin reagent that responds to reducing activity.
The subject of data set [2] is HBV. Put plainly: Anti-HBV activity, HepG2.2.15 stable transfected cell line, HBV DNA from secreted virions by realtime PCR. It counts as cell-based. The note with it: Hepatitis B virus, HepG2.2.15, 144 h, HepG2.2.15 cells, 6 days of treatment, HBV DNA from secreted virions; read-out: HepG2 2.15 EC50.
Data set [3] deals with HBV. The data set is described as follows: Anti-HBV activity, HepG2.117 inducibly HBV producing cell line (Tet-off), intracellular HBV DNA by realtime PCR. It counts as cell-based. The note with it: Hepatitis B virus, HepG2.117, 72 h, HepG2.117 cells, 3 days of treatment, intracellular HBV DNA; read-out: HepG2 117 EC50.

What is called CC50 is the concentration that lowers cell viability or growth by half. One may read the EC50 as the concentration at which the effect is half-maximal. As to `C[C@@H](NS(=O)(=O)c1cc(C(=O)Nc2cccc(Br)c2F)n(C)c1)C(F)(F)F` [Compound 206, N-(3-Bromo-2-fluorophenyl)-1-methyl-4-{[(1R)-2,2,2-trifluoro-1-methylethyl]sulfamoyl}-1H-pyrrole-2-carboxamide], the CC50 at 4 days in data set [1] was more than 25 µM. For the same molecule, the values for the EC50 in the data set on HBV [2] and in the data set with HBV [3] were 30 nM and 90 nM, respectively.

Molecule `Cc1cc(NC(=O)c2cc(S(=O)(=O)N[C@@H](C)C(F)(F)F)cn2C)ccc1F` [Compound 8, N-(4-fluoro-3-methyl-phenyl)-1-methyl-4-[[(1S)-2,2,2-trifluoro-1-methyl-ethyl]sulfamoyl]pyrrole-2-carboxamide] yielded a CC50 at 4 days in data set [1] of more than 25 µM. In addition, the EC50 with HBV [2] and with HBV [3] was 20 nM in each case.

`C[C@@H](NS(=O)(=O)c1cn(C)c(C(=O)Nc2ccc(F)c(C#N)c2)c1C#N)C(F)(F)F` [Compound 293, 3-cyano-N-(3-cyano-4-fluoro-phenyl)-1-methyl-4-[[(1R)-2,2,2-trifluoro-1-methyl-ethyl]sulfamoyl]pyrrole-2-carboxamide] gave a CC50 at 4 days in data set [1] of more than 25 µM. Moreover, the EC50 was determined as 20 nM with HBV [2] and 50 nM in the data set with HBV [3].

For `Cn1cc(S(=O)(=O)NC2(C(F)(F)F)CCC2)c(Cl)c1C(=O)Nc1ccc(F)c(Cl)c1F` [Compound 219, 3-Chloro-N-(3-chloro-2,4-difluorophenyl)-1-methyl-4-{[1-(trifluoro-methyl)cyclobutyl]sulfamoyl}-1H-pyrrole-2-carboxamide], the CC50 at 4 days in data set [1] is more than 25 µM. Further, the EC50 in the data set with HBV [2] is 10 nM; in the data set with HBV [3] it was 9 nM.

As to `Cc1c(S(=O)(=O)N[C@H](C)C(F)(F)F)cc(C(=O)Nc2ccc(F)c(C(F)(F)F)c2)n1C` [Compound 142, N-[4-Fluoro-3-(trifluoromethyl)phenyl]-1,5-dimethyl-4-{[(1R)-2,2,2-trifluoro-1-methylethyl]sulfamoyl}-1H-pyrrole-2-carboxamide], in data set [1], the CC50 at 4 days is more than 25 µM. Besides, the values for the EC50 in the data set with HBV [2] and in the data set on HBV [3] were 150 nM and 420 nM, respectively.

In the case of `CCC(C)(C)NS(=O)(=O)c1cc(C(=O)Nc2cc(F)c(F)c(Cl)c2)n(C)c1` [Compound 66, N-(3-chloro-4,5-difluoro-phenyl)-4-(1,1-dimethylpropylsulfamoyl)-1-methyl-pyrrole-2-carboxamide], in data set [1], the CC50 at 4 days was more than 25 µM. In addition, the EC50 in the data set with HBV [2] and in the data set with HBV [3] was 30 nM in each case.

In data set [1], `Cn1cc(S(=O)(=O)NC(C)(C)C)cc1C(=O)Nc1cc(F)c(F)c(F)c1` [Compound 68, 4-(tert-butylsulfamoyl)-1-methyl-N-(3,4,5-trifluorophenyl)pyrrole-2-carboxamide] displayed a CC50 at 4 days of more than 25 µM. Moreover, the EC50 in the data set with HBV [2] and in the data set on HBV [3] was 70 nM each time.

In the case of `Cn1cc(S(=O)(=O)NC(C)(C)C)cc1C(=O)Nc1ccc(F)c(C#N)c1` [Compound 190, 4-(tert-Butylsulfamoyl)-N-(3-cyano-4-fluorophenyl)-1-methyl-1H-pyrrole-2-carboxamide], the CC50 at 4 days in data set [1] was more than 25 µM. Further, the EC50 with HBV [2] was 90 nM; in the data set with HBV [3], 100 nM.

As to `Cn1cc(S(=O)(=O)NC2(C(F)(F)F)CC2)cc1C(=O)Nc1cc(F)c(F)c(Cl)c1` [Compound 72, N-(3-chloro-4,5-difluoro-phenyl)-1-methyl-4-[[1-(trifluoromethyl)-cyclopropyl]sulfamoyl]pyrrole-2-carboxamide], the CC50 at 4 days in data set [1] is more than 25 µM. Moreover, the EC50 in the data set on HBV [2] and with HBV [3] was 10 nM each time.

As to `C[C@@H](NS(=O)(=O)c1cc(C(=O)Nc2ccc(F)c(Cl)c2)n(C)c1)C(F)(F)F` [Compound 123, N-(3-Chloro-4-fluorophenyl)-1-methyl-4-{[(1R)-2,2,2-trifluoro-1-methylethyl]sulfamoyl}-1H-pyrrole-2-carboxamide], in data set [1], the CC50 at 4 days was more than 25 µM. The EC50 in the data set on HBV [2] and in the data set with HBV [3] was 40 nM throughout.

As for `Cn1cc(S(=O)(=O)NC2(C(F)(F)F)CCOC2)cc1C(=O)Nc1ccc(F)c(C#N)c1` (single isomer, unassigned) [Compound 228a, N-(3-Cyano-4-fluorophenyl)-1-methyl-4-{[3-(trifluoromethyl)tetrahydrofuran-3-yl]sulfamoyl}-1H-pyrrole-2-carboxamide], the CC50 at 4 days in data set [1] is more than 25 µM. For the same molecule, the EC50 in the data set with HBV [2] and with HBV [3] was 30 nM each time.

In turn, `C[C@@H](NS(=O)(=O)c1cn(C)c(C(=O)Nc2ccc(F)c(C#N)c2)c1Cl)C(F)(F)F` [Compound 199, 3-Chloro-N-(3-cyano-4-fluorophenyl)-1-methyl-4-{[(1R)-2,2,2-trifluoro-1-methylethyl]sulfamoyl}-1H-pyrrole-2-carboxamide] showed a CC50 at 4 days in data set [1] of more than 25 µM. Further, the EC50 in the data set with HBV [2] was 6 nM; with HBV [3], 8 nM.

The molecule `CC(C)NS(=O)(=O)c1cc(C(=O)Nc2cc(F)c(F)c(Br)c2)n(C)c1` [Compound 46, N-(3-bromo-4,5-difluoro-phenyl)-4-(isopropylsulfamoyl)-1-methyl-pyrrole-2-carboxamide] yielded a CC50 at 4 days in data set [1] of more than 25 µM. For the same molecule, the EC50 in the data set on HBV [2] came to 120 nM; in the data set with HBV [3], 170 nM.

`Cn1cc(S(=O)(=O)NC(C)(C)C)c(Cl)c1C(=O)Nc1ccc(F)c(Cl)c1F` [Compound 224, 4-(tert-Butylsulfamoyl)-3-chloro-N-(3-chloro-2,4-difluorophenyl)-1-methyl-1H-pyrrole-2-carboxamide] yielded a CC50 at 4 days in data set [1] of more than 25 µM. In addition, the results for the EC50 in the data set on HBV [2] and with HBV [3] were 220 nM and 260 nM, respectively.

In data set [1], `Cn1cc(S(=O)(=O)NC2(C)CC2)cc1C(=O)Nc1ccc(F)c(C#N)c1` [Compound 244, N-(3-cyano-4-fluoro-phenyl)-1-methyl-4-[(1-methylcyclopropyl)-sulfamoyl]pyrrole-2-carboxamide] yielded a CC50 at 4 days of more than 25 µM. Besides, the EC50 amounted to 140 nM in the data set on HBV [2] and 530 nM with HBV [3].

In data set [1], `C[C@@H](NS(=O)(=O)c1cn(C)c(C(=O)Nc2cc(Cl)c(F)c(C#N)c2)c1F)C(F)(F)F` [Compound 313, N-(3-chloro-5-cyano-4-fluoro-phenyl)-3-fluoro-1-methyl-4-[[(1R)-2,2,2-trifluoro-1-methyl-ethyl]sulfamoyl]pyrrole-2-carboxamide] gave a CC50 at 4 days of more than 25 µM. The values for the EC50 in the data set on HBV [2] and with HBV [3] were 20 nM and 50 nM, respectively.

`Cn1cc(S(=O)(=O)NC2(C)COC2)cc1C(=O)Nc1ccc(F)c(F)c1` [Compound 20, N-(3,4-difluorophenyl)-1-methyl-4-[(3-methyloxetan-3-yl)sulfamoyl]pyrrole-2-carboxamide]: the CC50 at 4 days in data set [1] is more than 25 µM. Besides, the EC50 worked out at 70 nM with HBV [2] and 60 nM in the data set on HBV [3].

`CC(C)NS(=O)(=O)c1cc(C(=O)Nc2cccc(C#N)c2)n(C)c1` [Compound 177, N-(3-Cyanophenyl)-1-methyl-4-[(1-methylethyl)sulfamoyl]-1H-pyrrole-2-carboxamide]: the CC50 at 4 days in data set [1] is more than 25 µM. The EC50 was 330 nM in the data set with HBV [2] and 260 nM in the data set on HBV [3].

Consider `CC(C)NS(=O)(=O)c1cc(C(=O)Nc2ccc(F)c(F)c2)n(C)c1` [Compound 22, N-(3,4-difluorophenyl)-4-(isopropylsulfamoyl)-1-methyl-pyrrole-2-carboxamide], for which the CC50 at 4 days in data set [1] was more than 25 µM. The EC50 is 80 nM in the data set on HBV [2] and 70 nM in the data set on HBV [3].

As to `C[C@@H](NS(=O)(=O)c1cn(C)c(C(=O)Nc2ccc(F)c(C#N)c2)c1F)C(F)(F)F` [Compound 170, N-(3-Cyano-4-fluorophenyl)-3-fluoro-1-methyl-4-{[(1R)-2,2,2-trifluoro-1-methylethyl]sulfamoyl}-1H-pyrrole-2-carboxamide], the CC50 at 4 days in data set [1] was more than 100 µM. The figures for the EC50 in the data set with HBV [2] and in the data set with HBV [3] were less than 5 nM and 5 nM, respectively.

`Cn1cc(S(=O)(=O)NC2(C)COC2)cc1C(=O)Nc1cc(F)cc(C#N)c1` [Compound 54, N-(3-cyano-5-fluoro-phenyl)-1-methyl-4-[(3-methyloxetan-3-yl)-sulfamoyl]pyrrole-2-carboxamide] showed a 50% cytotoxic concentration (CC50) at 4 days in data set [1] of more than 25 µM. In addition, the EC50 with HBV [2] was 200 nM; in the data set on HBV [3], 250 nM.

In data set [1], `Cn1cc(S(=O)(=O)NC(C)(C)C)c(F)c1C(=O)Nc1ccc(F)c(F)c1F` [Compound 213, 4-(tert-Butylsulfamoyl)-3-fluoro-1-methyl-N-(2,3,4-trifluorophenyl)-1H-pyrrole-2-carboxamide] gave a CC50 at 4 days of more than 25 µM. Besides, the EC50 came out at 210 nM with HBV [2] and 310 nM with HBV [3].

Consider `Cn1cc(S(=O)(=O)NC2(C)COC2)cc1C(=O)Nc1cc(F)c(F)c(F)c1` [Compound 27, 1-methyl-4-[(3-methyloxetan-3-yl)sulfamoyl]-N-(3,4,5-trifluorophenyl)pyrrole-2-carboxamide], for which the CC50 at 4 days in data set [1] was more than 25 µM. Moreover, the EC50 in the data set with HBV [2] is 40 nM; in the data set with HBV [3], 60 nM.

With `C[C@H](NS(=O)(=O)c1cc(C(=O)Nc2cc(F)c(F)c(Br)c2)n(C)c1)C(F)(F)F` [Compound 100, N-(3-Bromo-4,5-difluorophenyl)-1-methyl-4-{[(1S)-2,2,2-trifluoro-1-methylethyl]sulfamoyl}-1H-pyrrole-2-carboxamide], the CC50 at 4 days in data set [1] came to 12.2 µM. Also, the EC50 with HBV [2] amounted to 60 nM; in the data set with HBV [3], 50 nM.

Molecule `CC(CC(F)(F)F)NS(=O)(=O)c1cc(C(=O)Nc2ccc(F)c(Cl)c2F)n(C)c1` (stereo not drawn) [Compound 260, N-(3-chloro-2,4-difluoro-phenyl)-1-methyl-4-[(3,3,3-trifluoro-1-methylpropyl)sulfamoyl]-1H-pyrrole-2-carboxamide] returned a CC50 at 4 days in data set [1] of more than 25 µM. For the same molecule, the EC50 was 70 nM in the data set with HBV [2] and 90 nM with HBV [3].
